The NIST ThermoML archive (doi:10.1016/j.jct.2015.09.022)
± gives the expanded uncertainty stated by the source.

Assay: xn = mol fraction of the nth substance listed
Details: 100.7 kPa, Liquid; for viscosity: Falling or rolling sphere viscometry; for speed of sound: Frequency=3 MHz, Sing-around technique in a fixed-path interferometer; for mass density: Vibrating tube method

CCCC=O [butanal] + CCCC[n+]1ccn(C)c1.O=S(=O)([N-]S(=O)(=O)C(F)(F)F)C(F)(F)F
Details | mass density [kg/m3] | speed of sound [m/s] | viscosity [mPa·s]
298.15 K, x2 = 0 | 796.99 ± 0.21 | 1193.8 ± 1.4 | 0.43 ± 0.03
298.15 K, x2 = 0.0222 | – | 1192 ± 1.4 | –
298.15 K, x2 = 0.0464 | – | 1190.7 ± 1.4 | –
298.15 K, x2 = 0.0748 | – | 1189.2 ± 1.4 | –
298.15 K, x2 = 0.1056 | 979.73 ± 0.46 | 1187.5 ± 1.4 | 1.53 ± 0.09
298.15 K, x2 = 0.2135 | 1105.53 ± 0.33 | 1191.7 ± 1.4 | 3.32 ± 0.2
298.15 K, x2 = 0.3088 | 1185.23 ± 0.32 | 1196.2 ± 1.4 | 5.62 ± 0.34
298.15 K, x2 = 0.4153 | 1251.86 ± 0.36 | 1200.5 ± 1.4 | 8.98 ± 0.55
298.15 K, x2 = 0.5025 | 1294.27 ± 0.4 | 1204.2 ± 1.5 | 12.42 ± 0.75
298.15 K, x2 = 0.5987 | 1332.31 ± 0.44 | 1208.6 ± 1.5 | 16.22 ± 0.99
298.15 K, x2 = 0.6852 | 1360.82 ± 0.48 | 1213.2 ± 1.5 | 20.37 ± 1.2
298.15 K, x2 = 0.7729 | 1385.61 ± 0.52 | 1217.5 ± 1.5 | 25.55 ± 1.6
298.15 K, x2 = 0.8852 | 1412.72 ± 0.57 | 1223.9 ± 1.5 | 34.29 ± 2.1
303.15 K, x2 = 0 | 791.8 ± 0.21 | 1172.7 ± 1.4 | 0.4 ± 0.02
303.15 K, x2 = 0.0222 | – | 1171.6 ± 1.4 | –
303.15 K, x2 = 0.0464 | – | 1170.9 ± 1.4 | –
303.15 K, x2 = 0.0748 | – | 1170 ± 1.4 | –
303.15 K, x2 = 0.1056 | 975.4 ± 0.34 | 1169 ± 1.4 | 1.24 ± 0.08
303.15 K, x2 = 0.2135 | 1101.73 ± 0.31 | 1173.6 ± 1.4 | 2.62 ± 0.16
303.15 K, x2 = 0.3088 | 1181.18 ± 0.32 | 1179.9 ± 1.4 | 4.29 ± 0.26
303.15 K, x2 = 0.4153 | 1247.94 ± 0.36 | 1185.4 ± 1.4 | 6.76 ± 0.41
303.15 K, x2 = 0.5025 | 1290.44 ± 0.4 | 1189.5 ± 1.5 | 9.23 ± 0.56
303.15 K, x2 = 0.5987 | 1328.49 ± 0.44 | 1195.7 ± 1.5 | 12.08 ± 0.74
303.15 K, x2 = 0.6852 | 1356.74 ± 0.48 | 1200.6 ± 1.5 | 15.05 ± 0.92
303.15 K, x2 = 0.7729 | 1381.37 ± 0.52 | 1206.6 ± 1.5 | 19.07 ± 1.2
303.15 K, x2 = 0.8852 | 1408.37 ± 0.56 | 1213.6 ± 1.5 | 26.85 ± 1.6
308.15 K, x2 = 0 | 786.41 ± 0.21 | 1151.6 ± 1.4 | 0.39 ± 0.02
308.15 K, x2 = 0.0222 | – | 1150.1 ± 1.4 | –
308.15 K, x2 = 0.0464 | – | 1149.4 ± 1.4 | –
308.15 K, x2 = 0.0748 | – | 1148.8 ± 1.4 | –
308.15 K, x2 = 0.1056 | 971.06 ± 0.34 | 1149.6 ± 1.4 | 0.98 ± 0.06
308.15 K, x2 = 0.2135 | 1097.08 ± 0.31 | 1154.8 ± 1.4 | 1.98 ± 0.12
308.15 K, x2 = 0.3088 | 1176.97 ± 0.32 | 1161.6 ± 1.4 | 3.18 ± 0.19
308.15 K, x2 = 0.4153 | 1243.96 ± 0.36 | 1168.7 ± 1.4 | 4.87 ± 0.3
308.15 K, x2 = 0.5025 | 1286.66 ± 0.4 | 1174.3 ± 1.5 | 6.66 ± 0.41
308.15 K, x2 = 0.5987 | 1324.67 ± 0.44 | 1180.5 ± 1.5 | 8.73 ± 0.53
308.15 K, x2 = 0.6852 | 1352.96 ± 0.48 | 1186.4 ± 1.5 | 10.93 ± 0.67
308.15 K, x2 = 0.7729 | 1377.44 ± 0.51 | 1193.6 ± 1.5 | 14.71 ± 0.89
308.15 K, x2 = 0.8852 | 1404.09 ± 0.56 | 1201 ± 1.5 | 21.85 ± 1.3
313.15 K, x2 = 0 | 781.37 ± 0.21 | 1130.6 ± 1.4 | 0.36 ± 0.02
313.15 K, x2 = 0.0222 | – | 1129.3 ± 1.4 | –
313.15 K, x2 = 0.0464 | – | 1128.5 ± 1.4 | –
313.15 K, x2 = 0.0748 | – | 1127.9 ± 1.4 | –
313.15 K, x2 = 0.1056 | 966.81 ± 0.35 | 1129.2 ± 1.4 | 0.8 ± 0.05
313.15 K, x2 = 0.2135 | 1092.97 ± 0.31 | 1136.5 ± 1.4 | 1.53 ± 0.09
313.15 K, x2 = 0.3088 | 1173.06 ± 0.32 | 1144.7 ± 1.4 | 2.39 ± 0.15
313.15 K, x2 = 0.4153 | 1240.28 ± 0.36 | 1152.6 ± 1.4 | 3.69 ± 0.22
313.15 K, x2 = 0.5025 | 1282.97 ± 0.39 | 1159.6 ± 1.4 | 5.13 ± 0.31
313.15 K, x2 = 0.5987 | 1320.95 ± 0.43 | 1166.8 ± 1.5 | 6.82 ± 0.41
313.15 K, x2 = 0.6852 | 1349.19 ± 0.47 | 1174.2 ± 1.5 | 8.86 ± 0.54
313.15 K, x2 = 0.7729 | 1373.41 ± 0.51 | 1181.8 ± 1.5 | 11.8 ± 0.72
313.15 K, x2 = 0.8852 | 1399.8 ± 0.56 | 1189.6 ± 1.5 | 17.93 ± 1.1
318.15 K, x2 = 0 | 776.39 ± 0.21 | 1109.6 ± 1.4 | 0.35 ± 0.02
318.15 K, x2 = 0.0222 | – | 1108.4 ± 1.4 | –
318.15 K, x2 = 0.0464 | – | 1107.7 ± 1.4 | –
318.15 K, x2 = 0.0748 | – | 1107 ± 1.4 | –
318.15 K, x2 = 0.1056 | 961.43 ± 0.35 | 1109 ± 1.4 | 0.69 ± 0.04
318.15 K, x2 = 0.2135 | 1088.71 ± 0.31 | 1118.4 ± 1.4 | 1.23 ± 0.07
318.15 K, x2 = 0.3088 | 1169.26 ± 0.31 | 1128.2 ± 1.4 | 1.96 ± 0.12
318.15 K, x2 = 0.4153 | 1236.78 ± 0.36 | 1137.7 ± 1.4 | 2.96 ± 0.18
318.15 K, x2 = 0.5025 | 1279.56 ± 0.39 | 1145.2 ± 1.5 | 4.06 ± 0.25
318.15 K, x2 = 0.5987 | 1317.62 ± 0.43 | 1153.1 ± 1.5 | 5.62 ± 0.34
318.15 K, x2 = 0.6852 | 1345.51 ± 0.47 | 1162.1 ± 1.5 | 7.72 ± 0.47
318.15 K, x2 = 0.7729 | 1369.39 ± 0.51 | 1170.1 ± 1.5 | 10.43 ± 0.63
318.15 K, x2 = 0.8852 | 1395.55 ± 0.55 | 1179.3 ± 1.5 | 15.49 ± 0.94
323.15 K, x2 = 0 | 771.3 ± 0.22 | 1088.8 ± 1.4 | 0.32 ± 0.02
323.15 K, x2 = 0.0222 | – | 1087.5 ± 1.4 | –
323.15 K, x2 = 0.0464 | – | 1086.7 ± 1.4 | –
323.15 K, x2 = 0.0748 | – | 1086.1 ± 1.4 | –
323.15 K, x2 = 0.1056 | 957.54 ± 0.6 | 1087.8 ± 1.4 | 0.56 ± 0.03
323.15 K, x2 = 0.2135 | 1084.6 ± 0.42 | 1099.2 ± 1.4 | 0.94 ± 0.06
323.15 K, x2 = 0.3088 | 1165.17 ± 0.37 | 1110.2 ± 1.4 | 1.43 ± 0.09
323.15 K, x2 = 0.4153 | 1232.87 ± 0.39 | 1120.3 ± 1.4 | 2.24 ± 0.14
323.15 K, x2 = 0.5025 | 1275.6 ± 0.41 | 1128.5 ± 1.5 | 3.07 ± 0.19
323.15 K, x2 = 0.5987 | 1313.47 ± 0.44 | 1138.5 ± 1.5 | 4.43 ± 0.27
323.15 K, x2 = 0.6852 | 1341.63 ± 0.47 | 1147.2 ± 1.5 | 6.21 ± 0.38
323.15 K, x2 = 0.7729 | 1365.48 ± 0.51 | 1156.5 ± 1.5 | 8.42 ± 0.51
323.15 K, x2 = 0.8852 | 1391.08 ± 0.55 | 1166.2 ± 1.5 | 12.99 ± 0.79
